Values of other authors in US20210069064A1, “A MANUFACTURING METHOD OF AN HERBAL MEDICINAL TABLET FORMULATION FOR TREATING OBESITY WHICH CAN BE […] ON SASANG CONS[…]” (NUBEBE CO., LTD., priority 2017, published 2021).

Details: taken for 20 weeks or more

**Q.** Which “weight and body fat change compared to the control group” value does the source give for CN[C@@H](C)[C@H](O)c1ccccc1 [ephedrine] here?
**A.** weight and body fat loss
